# Results reported in the supplement of paper PMC10307832.
# How the values were obtained:
# Test in all cases: relative viability (nuclei count vs DMSO), 5 days (fraction); higher = more cells survive
# [1] = compound: C1CNCCC1C2=CC(=NN2)C3=CC=NC=C3 + CS(=O)(=O)CCNCc1ccc(-c2ccc3ncnc(Nc4ccc(OCc5cccc(F)c5)c(Cl)c4)c3c2)o1 [Lapatinib] (partner 2 µM)
# How it was run: (§1)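 The day after seeding in 1536-well plates, lung cancer cell lines were treated by pin tool with a single drug, or with a fixed anchor-drug dose together with five library-drug doses (not always all listed) in √10 steps. After 5 days, a combined fix-and-stain solution (final 0.05% Triton X-100, 1% formaldehyde, 1 ug/ml Hoechst) was added. Nuclei counted on 4× images gave relative viability as treated counts over vehicle counts, reported as the median of duplicate plates.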
# [2] = compound: O[C@H]1CC[C@H](Nc2ncc3nc(Nc4c(F)cc(F)cc4F)n([C@H]4CCOC4)c3n2)CC1 [Tanzisertib] + CC(=O)Nc1cccc(-n2c(=O)n(C3CC3)c(=O)c3c(Nc4ccc(I)cc4F)n(C)c(=O)c(C)c32)c1 [Trametinib] (partner 0.02 µM)
# How it was run: as §1
# [3] = compound: O[C@H]1CC[C@H](Nc2ncc3nc(Nc4c(F)cc(F)cc4F)n([C@H]4CCOC4)c3n2)CC1 [Tanzisertib] + CC(=O)c1c(C)c2cnc(Nc3ccc(N4CCNCC4)cn3)nc2n(C2CCCC2)c1=O [Palbociclib] (partner 0.5 µM)
# How it was run: as §1
# [4] = compound: O[C@H]1CC[C@H](Nc2ncc3nc(Nc4c(F)cc(F)cc4F)n([C@H]4CCOC4)c3n2)CC1 [Tanzisertib] + C[C@@H](Oc1cc(-c2cnn(C3CCNCC3)c2)cnc1N)c1c(Cl)ccc(F)c1Cl [Crizotinib] (partner 1 µM)
# How it was run: as §1
Cell Line,relative viability ([1]; first compound 0.08 µM),relative viability ([1]; first compound 0.8 µM),relative viability ([1]; first compound 2.53 µM),relative viability ([1]; first compound 8 µM),relative viability ([2]; first compound 0.08 µM),relative viability ([2]; first compound 0.253 µM),relative viability ([2]; first compound 0.8 µM),relative viability ([2]; first compound 2.53 µM),relative viability ([2]; first compound 8 µM),relative viability ([3]; first compound 0.08 µM),relative viability ([3]; first compound 0.253 µM),relative viability ([3]; first compound 0.8 µM),relative viability ([3]; first compound 2.53 µM),relative viability ([3]; first compound 8 µM),relative viability ([4]; first compound 0.08 µM),relative viability ([4]; first compound 0.253 µM),relative viability ([4]; first compound 0.8 µM),relative viability ([4]; first compound 2.53 µM),relative viability ([4]; first compound 8 µM)
NCI-H1793,0.581,0.725,0.644,0.666,0.65,0.419,0.475,0.398,0.542,0.306,0.326,0.347,0.293,0.303,–,–,–,–,–
NCI-H2009,0.998,1.01,1.07,0.888,0.316,0.274,0.274,0.247,0.21,0.201,0.209,0.263,0.278,0.187,1.04,1.13,1.02,1.12,1.06
ABC-1,1.14,1.25,1.09,1.38,–,–,–,–,–,0.927,0.597,0.946,0.818,0.824,1.4,1.07,1.29,1.26,1.26
IA-LM,0.809,1.13,0.926,0.898,–,–,–,–,–,–,–,–,–,–,0.927,0.544,–,0.948,0.87
NCI-H322M,0.545,0.555,0.592,0.524,0.464,0.482,0.491,0.448,0.544,0.475,0.459,0.475,0.472,0.534,0.779,0.928,0.832,0.882,0.709
NCI-H1792,0.893,0.851,0.913,0.788,0.501,0.455,0.35,0.413,0.244,0.7,0.66,0.654,0.64,0.573,1.03,1.05,1.04,0.879,0.87
SW 900,–,–,–,–,–,0.868,0.857,0.552,0.737,–,0.522,0.557,0.56,0.454,–,–,–,–,–
NCI-H1299,0.96,0.948,1,0.891,–,–,–,–,–,–,–,–,–,–,0.983,0.972,0.968,0.984,1.05
NCI-H1563,0.747,0.885,0.896,1.03,–,–,–,–,–,–,–,–,–,–,0.85,0.937,0.869,0.966,0.79
NCI-H596,1.08,1.17,1.07,0.993,0.789,0.796,0.89,0.73,0.776,–,–,–,–,–,0.979,1.05,0.955,0.988,0.902
Calu-6,0.987,1.17,1.12,1.05,–,–,–,–,–,–,–,–,–,–,0.79,0.785,0.782,0.756,0.712
NCI-H1395,0.886,0.876,0.987,1.18,1.03,0.932,0.989,0.991,1.05,0.71,0.574,0.607,0.618,0.632,–,–,–,–,–
NCI-H1703,1.03,1.51,1.12,1.03,–,–,–,–,–,–,–,–,–,–,0.538,0.573,0.69,1.08,0.723
EBC-1,0.202,0.219,0.209,0.239,–,–,–,–,–,–,–,–,–,–,0.206,0.168,0.195,0.178,0.185
NCI-H2342,–,–,–,–,0.791,0.733,0.804,0.863,0.938,0.539,0.542,0.52,0.497,0.582,–,–,–,–,–
ChaGo-K-1,–,–,–,–,0.902,0.896,0.821,0.91,0.832,0.977,0.927,0.91,0.889,0.903,1.21,1.13,1.07,1.09,1.02
NCI-H1648,–,–,–,–,0.492,0.459,0.51,0.5,0.482,0.228,0.267,0.212,0.229,0.251,–,–,–,–,–
NCI-H522,–,–,–,–,0.766,0.535,0.688,0.826,0.69,1.05,0.984,0.959,1.13,0.899,–,–,–,–,–
A549,0.863,1.02,1.14,0.952,–,–,–,–,–,–,–,–,–,–,0.852,0.633,0.778,0.913,0.714
NCI-H441,–,–,–,–,0.567,0.452,0.456,0.429,0.388,0.236,0.224,0.241,0.194,0.154,0.94,0.811,0.505,0.647,0.78
LCLC-103H,–,–,–,–,0.661,0.744,0.703,0.691,0.71,0.519,0.466,0.486,0.456,0.465,1.06,1.01,1.11,1.09,1.01
